Data as given in patent US9381200B2, “Nitrogen containing compounds” (WOCKHARDT LIMITED, priority 2011, dated 2016).
Converted amounts (≈) assume the structure as drawn. Where two headings read alike, the source gives them in different places.

Assays:
Assay in all cases: Antibacterial activity (MIC), agar dilution per CLSI
Format in all cases: cell-based
[1] = system: E. coli 7 MP; settings: Table 3, E. coli 7 MP expressing ESBL
Experimental: (§1) The biological activity of representative compounds according to the invention against various bacterial strains was investigated. In a typical study, overnight grown bacterial cultures were diluted appropriately and inoculated on the agar media containing doubling dilutions of the test compounds. Observation for growth or no growth was performed after 16-20 hours of incubation at 35±2° C. in ambient air. The overall procedure was performed as per Clinical and Laboratory Standards Institute (CLSI) recommendations (Clinical and Laboratory Standards Institute (CLSI), Performance Standards for Antimicrobial Susceptibility Testing, 20th Informational Supplement, M 100-S20, Volume 30, No. 1, 2010).
(§2) Table 3 details antibacterial activity of representative compounds according to the invention against various E. coli strains (NCTC 13351, M 50 and 7 MP) expressing ESBL (Extended Spectrum Beta Lactamases).

[2] = system: E. coli NCTC 13351; settings: 16-20 hours, 35±2° C.
Experimental: as §1, §2

[3] = system: E. coli M 50; settings: E. coli M 50 expressing ESBL, agar dilution
Experimental: as §1
The activities are expressed as MICs (mcg/ml).

[4] = Escherichia coli, read-out: MIC
[5] = Escherichia coli, NCTC13351, Table 3, E. coli NCTC 13351 expressing ESBL, read-out: MIC
[6] = Escherichia coli, M50, Table 3, read-out: MIC
[7] = Table 3, E. coli NCTC 13351 expressing ESBL

SMILES | MIC [1, 4] [µg/mL] | MIC [2, 5] [µg/mL] | MIC [3, 6] [µg/mL] | MIC [1] [µg/mL] | MIC [2, 7] [µg/mL] | MIC ([3]; Table 3) [µg/mL]
CO[C@H]1CN[C@H](C(=O)NNC(=O)[C@H]2CC[C@@H]3CN2C(=O)N3OS(=O)(=O)O)C1 (mixture of isomers) [Example 12, trans-sulfuric acid mono-[2-(N′-[(2S,4R)-4-methoxy-pyrrolidin-2-carbonyl]-hydrazinocarbonyl)-7-oxo-1,6-diaza-bicyclo[3.2.1]oct-6-yl]ester] | 32 | 1 | 8 | – | – | –
O=C(NNC(=O)[C@H]1CC[C@@H]2CN1C(=O)N2OS(=O)(=O)O)[C@H]1CCCNC1 (mixture of isomers) [Example 15, trans-sulfuric acid mono-[2-(N′—((S)-piperidin-3-carbonyl)-hydrazinocarbonyl)-7-oxo-1,6-diaza-bicyclo[3.2.1]oct-6-yl]ester] | 16 | 8 | 4 | – | – | –
O=C(NNC(=O)[C@H]1CCCCN1)[C@H]1CC[C@@H]2CN1C(=O)N2OS(=O)(=O)O (mixture of isomers) [Example 18, trans-sulfuric acid mono-[2-(N′—((R)-piperidin-2-carbonyl)-hydrazinocarbonyl)-7-oxo-1,6-diaza-bicyclo[3.2.1]oct-6-yl]ester] | 32 | 8 | 4 | – | – | –
O=C(NNC(=O)[C@H]1CC[C@@H]2CN1C(=O)N2OS(=O)(=O)O)[C@H]1CCNC1 (mixture of isomers) [Example 33, trans-sulfuric acid mono-[2-(N′—[(S)-pyrrolidin-3-carbonyl]-hydrazinocarbonyl)-7-oxo-1,6-diaza-bicyclo[3.2.1]oct-6-yl]ester] | 2 | 1 | 0.5 | – | – | –
O=C(NNC(=O)[C@H]1CC[C@@H]2CN1C(=O)N2OS(=O)(=O)O)[C@@H]1C[C@@H](O)CN1 (mixture of isomers) [Example 34, trans-sulfuric acid mono-[2-(N′-[(2S,4R)-4-hydroxy-pyrrolidin-2-carbonyl]-hydrazinocarbonyl)-7-oxo-1,6-diaza-bicyclo[3.2.1]oct-6-yl]ester] | 8 | 2 | 2 | – | – | –
N=C(N)N[C@@H]1CN[C@H](C(=O)NNC(=O)[C@H]2CC[C@@H]3CN2C(=O)N3OS(=O)(=O)O)C1 (mixture of isomers) [Example 36, trans-sulfuric acid mono-[2-(N′-[(2S,4S)-4-guanidino-pyrrolidin-2-carbonyl]-hydrazinocarbonyl)-7-oxo-1,6-diaza-bicyclo[3.2.1]oct-6-yl]ester] | 2 | 1 | 1 | – | – | –
O=C(NNC(=O)[C@H]1CC[C@@H]2CN1C(=O)N2OS(=O)(=O)O)[C@@H]1COCCN1 (mixture of isomers) [Example 39, trans-sulfuric acid mono-[2-(N′—((S)-morpholin-3-carbonyl)-hydrazinocarbonyl)-7-oxo-1,6-diaza-bicyclo[3.2.1]oct-6-yl]ester] | 8 | 4 | 2 | – | – | –
O=C(NNC(=O)[C@H]1CC[C@@H]2CN1C(=O)N2OS(=O)(=O)O)C1CCCCN1 (mixture of isomers) [Example 16, trans-sulfuric acid mono-[2-(N′—((RS)-piperidin-2-carbonyl)-hydrazinocarbonyl)-7-oxo-1,6-diaza-bicyclo[3.2.1]oct-6-yl]ester] | 2 (≈ 5.11 µM) | 1 (≈ 2.55 µM) | 1 (≈ 2.55 µM) | – | – | –
O=C(NNC(=O)[C@H]1CC[C@@H]2CN1C(=O)N2OS(=O)(=O)O)C1CCNC1 (mixture of isomers) [Example 32, trans-sulfuric acid mono-[2-(N′—[(RS)-pyrrolidin-3-carbonyl]-hydrazinocarbonyl)-7-oxo-1,6-diaza-bicyclo[3.2.1]oct-6-yl]ester] | 1 (≈ 2.65 µM) | 0.5 (≈ 1.32 µM) | 0.5 (≈ 1.32 µM) | – | – | –
O=C(CCC1CCCCN1)NNC(=O)[C@H]1CC[C@@H]2CN1C(=O)N2OS(=O)(=O)O (mixture of isomers) [Example 37, trans-sulfuric acid mono-[2-(N′—[(RS)-3-piperidin-2-yl-propionyl]-hydrazinocarbonyl)-7-oxo-1,6-diaza-bicyclo[3.2.1]oct-6-yl]ester] | 4 (≈ 9.54 µM) | 2 (≈ 4.77 µM) | 2 (≈ 4.77 µM) | – | – | –
O=C(NNC(=O)N1CCCC1)[C@H]1CC[C@@H]2CN1C(=O)N2OS(=O)(=O)O (relative stereo) [Example 29, trans-sulfuric acid mono-[2-(N′-[pyrrolidin-1-carbonyl]-hydrazinocarbonyl)-7-oxo-1,6-diaza-bicyclo[3.2.1]oct-6-yl]ester] | 128 (≈ 339 µM) | 32 (≈ 84.8 µM) | 16 (≈ 42.4 µM) | – | – | –

Further lines, results first:

MIC [1, 4] [µg/mL] | MIC [2, 5] [µg/mL] | MIC [3, 6] [µg/mL] | MIC [1] [µg/mL] | MIC [2, 7] [µg/mL] | MIC ([3]; Table 3) [µg/mL] | SMILES
2 | 1 | 1 | – | – | – | NCCCC[C@H](N)C(=O)NNC(=O)[C@H]1CC[C@@H]2CN1C(=O)N2OS(=O)(=O)O (mixture of isomers) [Example 26, trans-sulfuric acid mono-[2-(N′-((2S)-2,6-diamino-hexanoyl)-hydrazinocarbonyl)-7-oxo-1,6-diaza-bicyclo[3.2.1]oct-6-yl]ester]
– | – | – | 8 (≈ 19.4 µM) | 2 (≈ 4.84 µM) | 2 (≈ 4.84 µM) | NC(C(=O)NNC(=O)[C@H]1CC[C@@H]2CN1C(=O)N2OS(=O)(=O)O)c1ccccc1 (mixture of isomers) [Example 20, trans-sulfuric acid mono-[2-(N′—((RS)-1-amino-1-phenyl-acetyl)-hydrazinocarbonyl)-7-oxo-1,6-diaza-bicyclo[3.2.1]oct-6-yl]ester]
4 (≈ 10.9 µM) | 1 (≈ 2.74 µM) | 1 (≈ 2.74 µM) | – | – | – | CC(N)CC(=O)NNC(=O)[C@H]1CC[C@@H]2CN1C(=O)N2OS(=O)(=O)O (mixture of isomers) [Example 21, trans-sulfuric acid mono-[2-(N′—((RS)-3-amino-butanoyl)-hydrazinocarbonyl)-7-oxo-1,6-diaza-bicyclo[3.2.1]oct-6-yl]ester]
– | – | – | 16 (≈ 38.6 µM) | 4 (≈ 9.65 µM) | 4 (≈ 9.65 µM) | NC(C(=O)NNC(=O)[C@H]1CC[C@@H]2CN1C(=O)N2OS(=O)(=O)O)c1ccccn1 (mixture of isomers) [Example 41, trans-sulfuric acid mono-[2-(N′—((RS)-1-amino-1-pyridin-2-yl-acetyl)-hydrazinocarbonyl)-7-oxo-1,6-diaza-bicyclo[3.2.1]oct-6-yl]ester]
128 (≈ 457 µM) | 32 (≈ 114 µM) | 64 (≈ 228 µM) | – | – | – | NNC(=O)[C@H]1CC[C@@H]2CN1C(=O)N2OS(=O)(=O)O (relative stereo) [Example 6, trans-sulfuric acid mono-[2-hydrazinocarbonyl-7-oxo-1,6-diaza-bicyclo[3.2.1]oct-6-yl]ester]
– | – | – | 32 (≈ 87.1 µM) | 1 (≈ 2.72 µM) | 8 (≈ 21.8 µM) | N[C@@H](CO)C(=O)NNC(=O)[C@H]1CC[C@@H]2CN1C(=O)N2OS(=O)(=O)O (relative stereo) [Example 10]
8 (≈ 21.1 µM) | 4 (≈ 10.5 µM) | 4 (≈ 10.5 µM) | – | – | – | CC(C)(CN)C(=O)NNC(=O)[C@H]1CC[C@@H]2CN1C(=O)N2OS(=O)(=O)O (relative stereo) [Example 22, trans-sulfuric acid mono-[2-(N′-(3-amino-2,2-dimethyl-propioyl)-hydrazinocarbonyl)-7-oxo-1,6-diaza-bicyclo[3.2.1]oct-6-yl]ester]
8 (≈ 21.2 µM) | 4 (≈ 10.6 µM) | 4 (≈ 10.6 µM) | – | – | – | NCC1(C(=O)NNC(=O)[C@H]2CC[C@@H]3CN2C(=O)N3OS(=O)(=O)O)CC1 (relative stereo) [Example 23, trans-sulfuric acid mono-[2-(N′-(1-aminomethyl-cyclopropan-1-carbonyl)-hydrazinocarbonyl)-7-oxo-1,6-diaza-bicyclo[3.2.1]oct-6-yl]ester]
– | – | – | 4 (≈ 9.79 µM) | 1 (≈ 2.45 µM) | 1 (≈ 2.45 µM) | NC(=O)CCC(N)C(=O)NNC(=O)[C@H]1CC[C@@H]2CN1C(=O)N2OS(=O)(=O)O (relative stereo) [Example 24, trans-sulfuric acid mono-[2-(N′-(2-amino-4-carboxamido-butanoyl)-hydrazinocarbonyl)-7-oxo-1,6-diaza-bicyclo[3.2.1]oct-6-yl]ester]
4 (≈ 10.5 µM) | 1 (≈ 2.64 µM) | 1 (≈ 2.64 µM) | – | – | – | NCCCCC(=O)NNC(=O)[C@H]1CC[C@@H]2CN1C(=O)N2OS(=O)(=O)O (relative stereo) [Example 25, trans-sulfuric acid mono-[2-(N′-(5-amino-pentanoyl)-hydrazinocarbonyl)-7-oxo-1,6-diaza-bicyclo[3.2.1]oct-6-yl]ester]
8 (≈ 21 µM) | 4 (≈ 10.5 µM) | 2 (≈ 5.24 µM) | – | – | – | NCCOCC(=O)NNC(=O)[C@H]1CC[C@@H]2CN1C(=O)N2OS(=O)(=O)O (relative stereo) [Example 27, trans-sulfuric acid mono-[2-(N′-((2-aminoethoxy)-acetyl)-hydrazinocarbonyl)-7-oxo-1,6-diaza-bicyclo[3.2.1]oct-6-yl]ester]
4 (≈ 11 µM) | 1 (≈ 2.75 µM) | 1 (≈ 2.75 µM) | – | – | – | O=C(NNC(=O)[C@H]1CC[C@@H]2CN1C(=O)N2OS(=O)(=O)O)C1CNC1 (relative stereo) [Example 28, trans-sulfuric acid mono-[2-(N′-[azetidin-3-carbonyl]-hydrazinocarbonyl)-7-oxo-1,6-diaza-bicyclo[3.2.1]oct-6-yl]ester]
